Assay results from patent US10799530B1, “Composition and method for the prevention and treatment of obesity” (Vector Vitale IP LLC, priority 2019, dated 2020).
Where “and” joins values, the source holds several entries; their conditions need not be identical. Equal entries are not always repeated.

Columns and labels:
Assay type in all cases: in vivo
rats [1] = experiment: Glucose tolerance test; conditions: fast overnight, one value per animal
Protocol: A glucose tolerance test was performed to determine a potential effect of zinc isotope on the dynamics of glucose concentration in the blood flow. Experimental procedure: laboratory animals are given intragastric injections of either normal saline solution or zinc in saline solution (5 mg/kg) in a volume of 2 ml. After that, 60 minutes after the aforementioned injections, the basal level of glucose is measured and a glucose solution is injected in an amount of 3 g/kg in a volume of 2 ml using the same route of administration. The blood glucose levels are measured again 60 minutes after injecting the glucose solution.

rats [2] = experiment: Serum insulin level after intraperitoneal administration; conditions: intact rats; 3750 μg of zinc per 1 kg intraperitoneally every other day, 7 injections
Protocol: Animals are placed in cages, 4 per cage, with free access to food/water. […] Administration is performed every other day, in the amount of 7 injections per animal (intraperitoneal method of drug administration).
Samples in volume of 100 μl were incubated in microplate wells at 4° C. overnight. […] Non-specific binding sites were blocked with a 5% fat-free milk blocking solution and incubated for 1 hour at 37° C. After washing, the separate wells of the microplate were loaded with primary rabbit anti-insulin antibodies and incubated for 1 hour at 37° C. After incubation, the microplate wells were washed and loaded with appropriate secondary antibodies conjugated to horseradish peroxidase and incubated for another 1 hour at 37° C. […] The optical density was measured at 492 nm. The insulin concentrations were calculated using the calibration curve generated under the given conditions and human insulin of known concentration.)

rats [3] = experiment: Area of islets of Langerhans after intraperitoneal administration; conditions: intact rats, day 7 after the last administration
Protocol: Animals are placed in cages, 4 per cage, with free access to food/water. […] Administration is performed every other day, in the amount of 7 injections per animal (intraperitoneal method of drug administration). The dose of the drug injected to each animal was calculated on the basis of the ratio: 3750 μg of zinc per 1 kg of animal body weight.

rats [4] = experiment: Body weight, food and water consumption after intraperitoneal administration; conditions: intact rats; 3750 μg of zinc per 1 kg intraperitoneally every other day, 7 injections
Protocol: The current dose was calculated by zinc.

| Compound | Glucose tolerance test, 60 min (1 h after glucose administration) (rats [1]; effector dose 5 mg/kg in 2 ml, glucose 3 g/kg body weight in 2 ml) | Glucose tolerance test, 0 min (1 h after effector administration) (rats [1]; effector dose 5 mg/kg in a volume of 2 ml) | Serum insulin levels at day 7 after the withdrawal (rats [2]) | Serum insulin levels on the first day after the drug withdrawal (rats [2]) | Area of islets of Langerhans compared to the control group and the zinc acetate group (rats [3]) | Body weight of rats (rats [4]) |
| --- | --- | --- | --- | --- | --- | --- |
| CC(=O)[O-].CC(=O)[O-].[Zn+2] [Zn acetate, Zinc acetate, reference compound] | also dropped, though not so strongly and 7.2 and 6.9 and 7.3 and 6.8 | 4.6 and 5.2 (2×) and 4.9 and 5.1 | drop in the insulin levels to the value of those of intact/control animals | significant increase |  |  |
| zinc asparaginate [^64Zne] |  |  | significant increase in the insulin levels | slightly higher than in the group of intact animals | significant increase in the islet area | significant increase in the body weight |
